Results: patent US10160831B2, “Astaxanthin based polymer and uses thereof” (SHENKAR COLLEGE OF ENGINEERING AND DESIGN, priority 2014, dated 2018)

Experiments:
[1] = system: S. aureus and S. epidermidis isolates; test: Semi-quantitative biofilm assay (crystal violet, OD570) after culturing for 24 h; type: cell-based; conditions: 24 h culture, OD570, FIG. 12B, p≤0.005
Experimental: 3 ml Trypticase Soy Broth was inoculated with a colony from an overnight plate. Pre-cultures were grown at 37° C. with shaking to mid-exponential phase (2-3 h), and then used to inoculate fresh TSB to a starting OD600 of 0.01. 200 μl aliquots of this suspension were then inoculated into wells of one full row of the test plate. The plate was then incubated in a FLUOstar OPTIMA microplate reader at 37° C., and the optical density of each well measured every hour over a 24 h period. After 24 h the suspension in each plate was removed. The plate itself was washed three times with phosphate buffered saline, pH 7.4 (PBS), air dried and stained with 150 μl crystal violet solution. The dye bound to any attached cells was solubilized by addition of 150 μl of 95% ethanol. Optical density was measured as absorbance at 570 nm using a FLUOstar OPTIMA microplate reader and biofilm positive defined as OD570 above 1. All S. aureus and S. epidermidis isolates were tested in triplicate in three independent experiments. Each plate also consisted of negative controls (wells without bacterial inoculation). Data was analyzed using unpaired t-tests or one-way ANOVA, and the level of significance set at p<0.05. The ability of the bacteria to form a biofilm in the presence of the ATX samples was determined after culturing for 24 h using a semi-quantitative biofilm assay.

S. epidermidis 1457 = test: Bacterial growth on coated 96 well plates, optical density over 24 h; type: cell-based; conditions: coated wells, 37° C., FIG. 12A
Experimental: The potential antibacterial properties of polymer based ATX samples were tested against Staphylococcus aureus MRSA252, S. aureus MSSA476 and S. epidermidis 1457. Using solvent casting method [J. Ghosh et al., Polymer, vol. 52, pp. […]], 96 well plates were coated with the following samples—ATX only, ATX+sebacic acid (SA), ATX+Hexadecanoic acid (HA) and ATX+sebacic acid+2% polyethylene glycol (PEG). Each sample coated 3 wells per row and the last row was left blank as a control.
3 ml Trypticase Soy Broth was inoculated with a colony from an overnight plate. Pre-cultures were grown at 37° C. with shaking to mid-exponential phase (2-3 h), and then used to inoculate fresh TSB to a starting OD600 of 0.01. 200 μl aliquots of this suspension were then inoculated into wells of one full row of the test plate. The plate was then incubated in a FLUOstar OPTIMA microplate reader at 37° C., and the optical density of each well measured every hour over a 24 h period. […]
Optical density was measured as absorbance at 570 nm using a FLUOstar OPTIMA microplate reader and biofilm positive defined as OD570 above 1. […] Data was analyzed using unpaired t-tests or one-way ANOVA, and the level of significance set at p<0.05. The ability of the bacteria to form a biofilm in the presence of the ATX samples was determined after culturing for 24 h using a semi-quantitative biofilm assay.

CC1=C(/C=C/C(C)=C/C=C/C(C)=C/C=C/C=C(C)/C=C/C=C(C)/C=C/C2=C(C)C(=O)[C@@H](O)CC2(C)C)C(C)(C)C[C@H](O)C1=O [ATX, 3,3′-dihydroxy-β,βcarotene-4,4′-dione]
biofilm formation on coated surface vs control [1]: inhibited the bacteria from forming biofilm | effect on growth of the bacteria (optical density) (S. epidermidis 1457): significant effect on inhibiting the growth
